Results as given in paper PMC7056318, “An algal enzyme required for biosynthesis of the most abundant marine carotenoids” (Science Advances, 2020).

Key:
Format in all cases: biochemical
[1] = target: T1, PtVDE (Phaeodactylum tricornutum, UniProt B7FUR6); test: HPLC de-epoxidase assay, dose-response
T1 construct: gene VDE
T1 sequence (B7FUR6 105-437): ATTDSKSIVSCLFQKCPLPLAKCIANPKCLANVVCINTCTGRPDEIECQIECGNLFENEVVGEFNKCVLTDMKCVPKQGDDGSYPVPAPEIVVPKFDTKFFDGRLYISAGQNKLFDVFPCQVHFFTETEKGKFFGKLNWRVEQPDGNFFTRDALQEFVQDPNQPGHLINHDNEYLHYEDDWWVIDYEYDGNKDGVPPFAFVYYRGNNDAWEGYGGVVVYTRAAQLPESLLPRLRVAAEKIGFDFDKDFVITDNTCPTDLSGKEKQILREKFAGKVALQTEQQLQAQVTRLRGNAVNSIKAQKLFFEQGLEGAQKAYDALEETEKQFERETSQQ

[2] = target: T2, PtVDL1 (Phaeodactylum tricornutum, UniProt B7G087); test: HPLC tautomerase assay, dose-response
T2 construct: gene VDL1
T2 sequence (B7G087 112-453): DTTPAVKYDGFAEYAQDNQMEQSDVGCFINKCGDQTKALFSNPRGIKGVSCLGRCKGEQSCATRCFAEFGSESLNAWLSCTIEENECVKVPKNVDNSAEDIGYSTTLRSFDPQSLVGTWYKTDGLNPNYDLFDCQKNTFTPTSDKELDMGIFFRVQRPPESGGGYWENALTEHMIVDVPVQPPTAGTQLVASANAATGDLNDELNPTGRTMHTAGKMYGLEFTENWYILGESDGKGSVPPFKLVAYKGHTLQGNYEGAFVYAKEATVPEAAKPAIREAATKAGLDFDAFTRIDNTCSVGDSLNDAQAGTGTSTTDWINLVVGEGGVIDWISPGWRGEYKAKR

[3] = target: T3, VDL1 from T. pseudonana (Thalassiosira pseudonana, UniProt B8C0W7); test: HPLC, conversion of violaxanthin to neoxanthin; conditions: pH 5.2, 20 °C, MGDG, 3 h
T3 construct: gene THAPSDRAFT_22076
T3 sequence (B8C0W7 103-423): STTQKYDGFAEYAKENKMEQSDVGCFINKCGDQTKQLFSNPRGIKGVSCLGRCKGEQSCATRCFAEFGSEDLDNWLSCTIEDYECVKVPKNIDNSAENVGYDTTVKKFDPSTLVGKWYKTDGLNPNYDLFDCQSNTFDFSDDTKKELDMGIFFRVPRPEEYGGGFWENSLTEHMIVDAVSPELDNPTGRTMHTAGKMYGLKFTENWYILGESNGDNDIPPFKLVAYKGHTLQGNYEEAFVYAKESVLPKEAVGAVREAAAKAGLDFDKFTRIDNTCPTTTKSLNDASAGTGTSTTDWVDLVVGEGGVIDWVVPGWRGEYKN

Row | IC50 [1] [mM] | IC50 [2] [mM] | SMILES | HPLC, conversion of violaxanthin to neoxanthin [3]
1 | 0.68 | 73 | OC(CS)C(O)CS (stereo not drawn) [DTT] | 
2 |  |  | CC(/C=C/C=C(C)/C=C/[C@@]12O[C@]1(C)C[C@@H](O)CC2(C)C)=C\C=C\C=C(C)\C=C\C=C(C)\C=C\[C@@]12O[C@]1(C)C[C@@H](O)CC2(C)C [violaxanthin] | also showed violaxanthin-neoxanthin tautomerase activity in vitro
